# Patent US10513534B2, “2′-chloro nucleoside analogs for HCV infection” (priority 2012, dated 2019)
# Assays:
# [1] = Stability in simulated intestinal fluid; type: in vitro ADME; conditions: simulated intestinal fluid with pancreatin, 100 μM, 2 hours, 37° C.
# Protocol: Stability in Simulated Gastric and Intestinal Fluids: Simulated gastric and intestinal fluids containing pepsin and pancreatin respectively were prepared according to the U.S. Pharmacopoeia USP291 procedure(www.pharmacopeia.cn/v29240/usp29nf24s0_ris1s126.html). Each test compound (final concentration 100 μM) was incubated in duplicate in the appropriate fluid for 2 hours at 37° C. The samples were quenched with […] cold acetonitrile, vortexed for 30 seconds and then centrifuged at 16100×g for 10 min. The supernatants were analyzed by HPLC on a C-18 column with UV detection at 252 nm. The time zero samples were prepared by adding SGF or SIF fluid to the quenching solvent followed by the test compound. Stability of the compound was determined by peak area of the test compound after incubation and calculated as percent of the peak area observed at time zero.
# [2] = Stability in fresh whole blood; type: in vitro ADME; conditions: human whole blood, 0.5 μM
# Protocol: Stability of the test compounds was determined in fresh human whole blood with K2EDTA as the anticoagulant (stored refrigerated at 2-8° C. and used within 7 days of receipt). The experiment was conducted with three replicates for each time point. Whole blood, pre-incubated at 37° C. for 10-15 minutes, was fortified with a solution of test compound for a final concentration of 0.5 μM and mixed for 30 sec. At intervals (0, 0.5, 1 and 2 hr), three […] aliquots were combined with 200 μL (each) of an ice-cold solution of the internal standard (carbutamide 500 ng/mL in acetonitrile). The samples were vortexed for 30 sec and then centrifuged at 16100×g for 5 min. The supernatant was analyzed by LC-MS/MS. The MS peak area ratio of the test compound versus the internal standard was calculated and percent unchanged test compound was calculated for each time point using this ratio.
# [3] = tested on: fresh human hepatocytes; assay: Release of active metabolite in fresh human hepatocytes; type: in vitro ADME; conditions: 10 μM
# Protocol: (§1) Plates of fresh human and mouse hepatocytes were obtained on ice. The medium was removed and replaced with hepatocyte culture medium (William's E supplemented with penicillin-streptomycin, 1% L-glutamine, 1% insulin-transferrin-selenium and 0.1 μM Dexamethasone (Invitrogen) or with Invitro GRO HI medium complemented with Torpedo antibiotics (Celsis)). Cells were left overnight in an incubator at 37° C. to acclimatize to culture and the medium.
# (§2) Hepatocyte incubations were conducted at a final volume of 0.5 mL hepatocyte culture medium/well (0.8 million cells/well for human and 0.5 million cells/well for mouse; 12 well plate no overlay, collagen coat). Culture medium from overnight incubation of cells was removed and replaced with fresh medium, pre-warmed to 37° C., containing 10 μM of test compound from a stock solution in DMSO (final DMSO concentration was 0.1%). At each specific time point, incubation medium was removed and cell monolayers were carefully washed two times with ice-cold PBS. Following the last wash, all PBS was carefully removed and 1.0 mL of extraction solution (ice-cold 70% methanol/30% water) added. Cells were scraped off and suspended in the extraction solution, transferred to 2 mL polypropylene microfuge tubes and intracellular contents extracted overnight at −20° C.
# (§3) After the overnight treatment the cellular extracts were prepared by centrifugation at 16,000×g for 10 min to remove cellular debris. The remaining sample was then dried using a refrigerated centrivap concentrator. Dry extracts were reconstituted in 1000 μL of HPLC-grade water and centrifuged at 16,000×g for 10 min. Aliquots (100 μL each) of the supernatant were transferred into a 96 well plate and internal standard (4 ng/mL final concentration) was added as the internal standard (IS) for LC-MS/MS analysis.
# (§4) The incubation time points were 6, 24 and 48 hours for human hepatocytes and 1, 4, 8, 12 and 24 hours for mouse hepatocytes.
# [4] = tested on: fresh mouse hepatocytes; assay: Release of active metabolite in fresh mouse hepatocytes; type: in vitro ADME; conditions: 10 μM
# Protocol: as §1, §2, §3, §4
# [5] = Liver triphosphate pharmacokinetics after single oral dose in CD-1 mice; type: in vivo; conditions: single oral dose 10 mg/kg in PEG 200;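 for Ms Liver TP AUC: pmol·h/g liver normalized to a 1 µmol/kg dose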;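 for Ms Liver TP Cmax: pmol/g liver normalized to a 1 µmol/kg dose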
# Protocol: (§5) Internal standard solution was added to the homogenate followed by neutralization with 20% ammonium hydroxide solution and addition of 500 μL 1% formic acid. The tissue samples were extracted by weak anion exchange solid phase extraction (SPE). Post extraction, the eluates were evaporated under nitrogen, followed by reconstitution before injection onto the LC-MS/MS system.
# [6] = Liver triphosphate pharmacokinetics after single oral dose in cynomolgus monkeys; type: in vivo; conditions: 6 hours post dose, 10 mg/kg oral, normalized to 1 μmol/kg dose
# Protocol: For each compound, a single oral dose at 10 mg/kg in PEG 200 (dose volume 3 mL/kg) was administered to cynomolgus monkeys. Untreated animals were used for the collection of control liver. Plasma samples were collected at 0.5, 1, 2, 4, 6, 8, 12 and 24 hours for compound 37, diastereomer 2.
# as §5, with “Liver samples were analyzed for the relevant nucleoside triphosphate by LC-MS/MS. […] Appropriate internal” for “Internal”
# [7] = tested on: Zluc cells; assay: Cytotoxicity evaluation, CellTiter-Blue Cell Viability Assay; conditions: Zluc cells, CellTiter-Blue
structure (smiles),measurement,setting,value
"CC(C)OC(=O)[C@H](C)NP(=O)(OC[C@H]1O[C@@H](n2ccc(=O)[nH]c2=O)[C@](C)(Cl)[C@@H]1O)Oc1ccccc1 (single isomer, unassigned) [Compound 40ii Diastereomer 2]",SIF stability (percent remaining),[1],+ (+ ≤ 25%)
same,WB_Human (37° C.; 2 hr) stability (percent remaining),[2],++++ (75% < ++++)
same,FHH TP AUC,[3],++++ (1500 < ++++)
same,FHH TP Cmax,[3],++++ (100 < ++++)
same,FHH TP (6 hr),[3]; 6 hr,++++ (100 < ++++)
same,FHH TP (24 hr),[3]; 24 hr,+++ (50 < +++ ≤ 100)
same,FHH TP (48 hr),[3]; 48 hr,+++ (50 < +++ ≤ 100)
same,MsH AUC,[4],++++ (1500 < ++++)
same,MsH Cmax,[4],+++ (50 < +++ ≤ 100)
same,Ms Liver TP AUC,[5],+++ (500 < +++ ≤ 1500)
same,Ms Liver TP Cmax,[5],++ (15 < ++ ≤ 50)
same,Nucleoside triphosphate in Liver C6,[6],++++ (100 < ++++)
same,CC50,[7],> 50 µM
